Results from patent publication US20180148418A1, “AMIDO-SUBSTITUTED CYCLOHEXANE DERIVATIVES” (Bayer Pharma Aktiengesellschaft, priority 2015, published 2018).
Where a name gives a salt, the structure may show the parent alone.

Experiments:
TNKS1 = biological target: T1, TNKS1 (Homo sapiens, UniProt O95271); experiment: TNKS1 Assay B (auto-parsylation, [3H]-NAD+ SPA); type: biochemical; settings: 6 nM TNKS1, auto-parsylation, over night at room temperature
T1 construct: purchased BPS Bioscience, San Diego, USA 80579 (TNKS1 Histone Ribosylation Assay Kit)
T1 sequence (O95271 1-1327): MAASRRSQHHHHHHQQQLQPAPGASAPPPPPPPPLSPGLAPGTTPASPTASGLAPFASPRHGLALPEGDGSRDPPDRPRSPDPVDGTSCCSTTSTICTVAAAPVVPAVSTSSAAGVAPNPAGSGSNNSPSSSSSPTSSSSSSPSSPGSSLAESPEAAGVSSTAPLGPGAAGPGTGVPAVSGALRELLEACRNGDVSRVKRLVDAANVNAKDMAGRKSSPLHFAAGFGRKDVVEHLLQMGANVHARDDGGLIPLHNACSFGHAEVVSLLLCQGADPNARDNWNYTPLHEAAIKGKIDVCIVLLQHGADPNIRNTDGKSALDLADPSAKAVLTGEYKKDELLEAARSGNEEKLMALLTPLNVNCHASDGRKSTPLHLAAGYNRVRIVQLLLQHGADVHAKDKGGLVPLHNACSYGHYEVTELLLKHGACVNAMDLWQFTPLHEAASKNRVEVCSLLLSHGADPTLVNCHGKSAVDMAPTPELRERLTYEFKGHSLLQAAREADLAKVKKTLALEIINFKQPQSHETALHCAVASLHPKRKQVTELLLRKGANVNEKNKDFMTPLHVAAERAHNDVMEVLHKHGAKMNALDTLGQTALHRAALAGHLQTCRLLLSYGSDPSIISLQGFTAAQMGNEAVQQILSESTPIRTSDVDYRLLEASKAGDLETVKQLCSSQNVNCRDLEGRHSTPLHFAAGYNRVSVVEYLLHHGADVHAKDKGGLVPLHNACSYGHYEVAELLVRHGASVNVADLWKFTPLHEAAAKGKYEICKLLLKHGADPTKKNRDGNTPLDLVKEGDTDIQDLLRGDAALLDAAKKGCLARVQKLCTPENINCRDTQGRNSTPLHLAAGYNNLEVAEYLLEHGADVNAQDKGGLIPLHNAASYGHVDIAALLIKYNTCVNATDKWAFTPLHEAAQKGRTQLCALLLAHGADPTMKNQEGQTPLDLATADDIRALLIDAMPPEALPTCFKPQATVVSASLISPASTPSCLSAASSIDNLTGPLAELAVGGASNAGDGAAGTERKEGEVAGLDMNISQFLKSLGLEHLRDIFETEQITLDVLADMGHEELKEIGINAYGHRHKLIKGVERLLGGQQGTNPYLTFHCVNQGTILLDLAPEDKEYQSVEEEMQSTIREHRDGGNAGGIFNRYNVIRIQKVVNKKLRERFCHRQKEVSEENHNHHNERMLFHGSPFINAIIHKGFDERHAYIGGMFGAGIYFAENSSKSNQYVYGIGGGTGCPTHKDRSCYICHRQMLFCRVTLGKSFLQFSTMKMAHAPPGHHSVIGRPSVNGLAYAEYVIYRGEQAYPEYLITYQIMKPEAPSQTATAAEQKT

[1] = tested on: wildtype Wnt signaling cascade; experiment: HEK293 TOP assay (Super TopFlash luciferase reporter, Wnt-3a stimulated); type: cell-based; settings: Homo sapiens, HEK293 TOP reporter cells, Wnt3a at EC50, 16 hours
Procedure, shortened: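 Compound series (50 μM down to 15 nM, 3.16-fold) diluted from DMSO 50-fold into CAFTY buffer, pH 7.4, 2 mM Ca^2+, 0.01% BSA, applied to Wnt-3a-stimulated HEK293 TopFlash and FOP reporter lines in parallel. Cells seeded 10000/well 24 h before; luciferase signal measured.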

SMILES	IC50 (TNKS1) [nM]	IC50 [1] [nM]	IC50 ([1]; HEK293, 16 h) [nM]
CNC(=O)c1[nH]cnc1C(=O)NC1CCC(C(=O)Nc2ccc(F)cc2Cl)CC1C (racemic) [Example 39, N^4-{4-[(2-chloro-4-fluorophenyl)carbamoyl]-2-methylcyclohexyl}-N^5-methyl-1H-imidazole-4,5-dicarboxamide]	380	–	–
Cc1c(C(C)N(C)C)cnc2c(C(=O)N[C@H]3CC[C@H](C(=O)Nc4ccc(F)cc4Cl)CC3)cnn12 (mixture of isomers) [Example 55, N-{trans-4-[(2-chloro-4-fluorophenyl)carbamoyl]cyclohexyl}-6-[1-(dimethylamino)ethyl]-7-methylpyrazolo[1,5-a]pyrimidine-3-carboxamide formic acid salt]	740	280	–
O=C(NCCN1CCCCC1)c1nc[nH]c1C(=O)N[C@H]1CC[C@H](C(=O)Nc2ccc(F)cc2Cl)CC1 [Example 2, N^5-{trans-4-[(2-chloro-4-fluorophenyl)carbamoyl]cyclohexyl}-N^4-[2-(piperidin-1-yl)ethyl]-1H-imidazole-4,5-dicarboxamide]	550	–	25
CNC(C)c1cnc2c(C(=O)N[C@H]3CC[C@H](C(=O)Nc4ccc(F)cc4Cl)CC3)cnn2c1C (stereo partly drawn) [Example 54, N-{trans-4-[(2-chloro-4-fluorophenyl)carbamoyl]cyclohexyl}-7-methyl-6-[1-(methylamino)ethyl]pyrazolo[1,5-a]pyrimidine-3-carboxamide formic acid salt]	460	620	–
COCC(C)NC(=O)c1nc[nH]c1C(=O)N[C@H]1CC[C@H](C(=O)Nc2cc(N3CCOCC3)ccc2Cl)CC1 (stereo partly drawn) [Example 91, N^5-(trans-4-{[2-chloro-5-(morpholin-4-yl)phenyl]carbamoyl}cyclohexyl)-N^4-(1-methoxypropan-2-yl)-1H-imidazole-4,5-dicarboxamide]	2800	–	1800
